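Each compound was tested at five concentrations against cells in 96-well plates for 48 hours. GI50 is the concentration that inhibits growth by half. TGI: total growth inhibition.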
How the values were obtained:
Assay in all cases: NCI anticancer screen, dose series, 48 h
[1] = test system: MOLT-4 leukemia
[2] = test system: CAKI-1 renal
[3] = test system: HCT-15 colon
[4] = test system: TK-10 renal
[5] = test system: A549 NSCLC
[6] = test system: HL-60(TB) leukemia
[7] = test system: OVCAR-3 ovarian
[8] = test system: HOP-92 NSCLC
[9] = test system: KM12 colon
[10] = test system: BT-549 breast

## COc1cc2cc(OC)c3cc4c(cc3c2c(OC)c1OC)OCO4
[1]
  TGI: > 85.8 µM
[2]
  TGI: > 100 µM
[3]
  TGI: > 51.1 µM
[4]
  TGI: > 84.4 µM
[5]
  TGI: > 95.8 µM
[6]
  TGI: 45.7 µM
[7]
  TGI: > 100 µM
[8]
  TGI: > 93.3 µM
[9]
  TGI: > 51.2 µM

## OCC1=CC(NC2CC(CO)C(O)C(O)C2O)C(O)C(O)C1O (stereo not drawn)
[1]
  TGI: > 100 µM
[3]
  TGI: > 100 µM
[4]
  TGI: > 100 µM
[5]
  TGI: > 100 µM
[7]
  TGI: > 100 µM
[9]
  TGI: > 100 µM

## COC(=O)/C(C#N)=C1\NC(=O)c2ccccc21
[1]
  TGI: > 100 µM
[3]
  TGI: > 100 µM
[4]
  TGI: > 100 µM
[5]
  TGI: > 100 µM
[6]
  TGI: > 100 µM
[7]
  TGI: > 100 µM
[8]
  TGI: > 100 µM
[9]
  TGI: > 100 µM

## COc1cnc2c(c1)C(=O)c1c-2n(CCCN2CCOCC2)c(=O)c2cc(F)ccc12
[1]
  GI50: 0.106 µM
  TGI: 0.637 µM
[10]
  GI50: 0.523 µM
  TGI: > 100 µM
[4]
  GI50: 0.489 µM
  TGI: 16.3 µM
[6]
  GI50: 0.373 µM
  TGI: 2.85 µM
[7]
  GI50: 0.25 µM
  TGI: 2.37 µM
[8]
  GI50: 0.858 µM
  TGI: 6.86 µM
[9]
  GI50: 0.316 µM
  TGI: > 100 µM

## COC(=O)CC[N+]1=CCC(c2ccccc2)(c2ccccc2)O1
[1]
  TGI: > 100 µM
[2]
  TGI: > 100 µM
[10]
  TGI: > 100 µM
[3]
  TGI: > 100 µM
[4]
  TGI: > 100 µM
[5]
  TGI: > 100 µM
[7]
  TGI: > 100 µM
[8]
  TGI: > 100 µM
[9]
  TGI: > 100 µM

## Cc1cc(NS(=O)(=O)c2ccc(Nc3c4ccccc4nc4c(C(=O)N5CCN(CCOS(C)(=O)=O)CC5)cccc34)cc2)no1
[1]
  TGI: > 100 µM
[2]
  TGI: > 100 µM
[3]
  TGI: > 100 µM
[4]
  TGI: > 100 µM
[5]
  TGI: > 100 µM
[6]
  TGI: > 100 µM
[7]
  TGI: > 100 µM
[8]
  TGI: > 100 µM
[9]
  TGI: > 100 µM

## CNS(=O)(=O)NNS(=O)(=O)c1ccccc1
[1]
  TGI: > 100 µM
[2]
  TGI: > 100 µM
[3]
  TGI: > 100 µM
[4]
  TGI: > 100 µM
[5]
  TGI: > 100 µM
[6]
  TGI: > 100 µM
[7]
  TGI: > 100 µM
[8]
  TGI: > 100 µM
[9]
  TGI: > 100 µM

## O=C(Nc1nc2ccc([N+](=O)[O-])cc2s1)C(=O)C(C1OC(=O)c2ccccc21)[N+](=O)[O-] (stereo not drawn)
[1]
  TGI: > 100 µM
[2]
  TGI: > 100 µM
[3]
  TGI: > 100 µM
[4]
  TGI: > 100 µM
[5]
  TGI: > 100 µM
[6]
  TGI: > 100 µM
[7]
  TGI: > 100 µM
[8]
  TGI: 82.9 µM
[9]
  TGI: > 100 µM

## Cc1ccc(S(=O)(=O)OC[C@@H]2CO2)cc1
[1]
  TGI: > 100 µM
[2]
  TGI: > 100 µM
[3]
  TGI: > 100 µM
[4]
  TGI: > 100 µM
[5]
  TGI: > 100 µM
[6]
  TGI: > 100 µM
[7]
  TGI: > 100 µM
[8]
  TGI: > 100 µM
[9]
  TGI: > 100 µM

## COc1ccccc1N1C(=O)C2c3[nH]c4ccccc4c3C3CCC(C(C)(C)C)CC3C2C1=O (stereo not drawn)
[1]
  TGI: > 100 µM
[3]
  TGI: > 100 µM
[5]
  TGI: > 100 µM
[6]
  TGI: > 100 µM
[8]
  TGI: > 100 µM

## COc1cc2ccnc([C@@H](OC(=O)c3ccccc3)c3ccc(OC)c(OC)c3OC)c2cc1OC
[1]
  TGI: > 100 µM
[2]
  TGI: > 100 µM
[3]
  TGI: > 100 µM
[4]
  TGI: > 100 µM
[5]
  TGI: > 100 µM
[6]
  TGI: > 100 µM
[7]
  TGI: > 100 µM
[8]
  TGI: > 100 µM
[9]
  TGI: > 100 µM

## CCn1c(C)nn2c(=O)c3ccccc3nc2c1=O
[1]
  TGI: > 100 µM
[2]
  TGI: > 100 µM
[3]
  TGI: > 100 µM
[4]
  TGI: > 100 µM
[5]
  TGI: > 100 µM
[6]
  TGI: > 100 µM
[7]
  TGI: > 100 µM
[8]
  TGI: > 100 µM
[9]
  TGI: > 100 µM

## CC1(C)C(=O)/C=C\C(=O)C(C)(C)C2=CC=C(O2)C(C)(C)C(=O)/C=C\C(=O)C(C)(C)C2=CC=C1O2
[1]
  TGI: > 100 µM
[2]
  TGI: > 100 µM
[3]
  TGI: > 100 µM
[4]
  TGI: > 100 µM
[5]
  TGI: > 100 µM
[6]
  TGI: > 100 µM
[7]
  TGI: > 100 µM
[8]
  TGI: > 100 µM
[9]
  TGI: > 100 µM

## CC(=O)[CH-]C(=O)c1ccccc1.CC(=O)[CH-]C(=O)c1ccccc1.CN(C)c1ccc([O-])cc1.CN(C)c1ccc([O-])cc1.Cl.[Ti+4]
[2]
  GI50: 21 µM
  TGI: > 31.6 µM
[3]
  GI50: 25.5 µM
  TGI: > 31.6 µM
[4]
  GI50: 71.6 µM
  TGI: > 100 µM
[5]
  GI50: 29 µM
  TGI: > 31.6 µM
[6]
  GI50: 20.9 µM
  TGI: > 31.6 µM
[8]
  GI50: 14.9 µM
  TGI: 27.5 µM
[9]
  GI50: 13.2 µM
  TGI: 23.8 µM

## C=CCO[C@H]1CO[C@H]2[C@@H]1OC[C@@H]2Oc1ccc(Nc2ccnc(Nc3ccc(O[C@H]4CO[C@H]5[C@@H]4OC[C@@H]5OCC=C)c(Cl)c3)n2)cc1Cl
[2]
  GI50: 1.73 µM
  TGI: 3.1 µM
[10]
  GI50: 1.6 µM
  TGI: 3.11 µM
[3]
  GI50: 1.48 µM
  TGI: 3.06 µM
[4]
  GI50: 1.86 µM
  TGI: 3.63 µM
[5]
  GI50: 1.84 µM
  TGI: 3.95 µM
[6]
  GI50: 1.62 µM
  TGI: 3.78 µM
[7]
  GI50: 1.81 µM
  TGI: 3.25 µM
[8]
  GI50: 1.66 µM
  TGI: 3.3 µM
[9]
  GI50: 1.65 µM
  TGI: 3.08 µM

## CCN(CC)N=Nc1c(C(N)=O)n[nH]c1C
[2]
  TGI: > 100 µM
[10]
  TGI: > 100 µM
[3]
  TGI: > 100 µM
[4]
  TGI: > 100 µM
[5]
  TGI: > 100 µM
[7]
  TGI: > 100 µM
[8]
  TGI: 87.8 µM
[9]
  TGI: > 100 µM

## Cc1c(C(=O)C/C(=N/NC(=O)c2ccccc2O)C(=O)Nc2ccccc2C(C)C)[n+](=O)c2ccccc2n1[O-]
[1]
  TGI: 21.9 µM
[2]
  TGI: > 100 µM
[3]
  TGI: > 100 µM
[4]
  TGI: > 100 µM
[5]
  TGI: > 100 µM
[6]
  TGI: 38.3 µM
[7]
  TGI: > 100 µM
[9]
  TGI: > 100 µM

## Cc1nc2c(ccc3ncccc32)[nH]1
[1]
  TGI: > 100 µM
[2]
  TGI: > 100 µM
[3]
  TGI: > 100 µM
[4]
  TGI: > 100 µM
[5]
  TGI: > 100 µM
[6]
  TGI: > 100 µM
[7]
  TGI: > 100 µM
[8]
  TGI: > 100 µM
[9]
  TGI: > 100 µM

## COC1/C=C/OC2(C)Oc3c(C)c(O)c4c(O)c(c(/C=N/Nc5ccc([N+](=O)[O-])cc5[N+](=O)[O-])c(O)c4c3C2=O)NC(=O)C(C)=C/C=C/C(C)C(O)C(C)C(O)C(C)C(OC(C)=O)C1C (stereo not drawn)
[2]
  GI50: 2.9 µM
  TGI: > 50 µM
[3]
  GI50: 5.86 µM
  TGI: 31.1 µM
[5]
  GI50: 8.01 µM
  TGI: 17.3 µM
[7]
  GI50: 1.1 µM
  TGI: 2.52 µM
[8]
  GI50: 0.885 µM
  TGI: 2.04 µM
[9]
  GI50: 1.71 µM
  TGI: 6.68 µM

## CCOC(=O)C(C)(C)Oc1ccc2c(-c3ccccc3)cc(=O)oc2c1
[1]
  TGI: 54.6 µM
[3]
  TGI: > 100 µM
[4]
  TGI: > 100 µM
[5]
  TGI: > 100 µM
[6]
  TGI: 63.8 µM
[7]
  TGI: > 100 µM

## O=C(O)CCC(NC(=O)c1ccc(Nc2nc3ccccc3nc2-c2cccs2)cc1)C(=O)O (stereo not drawn)
[1]
  TGI: > 100 µM
[2]
  TGI: > 100 µM
[3]
  TGI: > 100 µM
[4]
  TGI: > 100 µM
[5]
  TGI: > 100 µM
[6]
  TGI: > 100 µM
[7]
  TGI: > 100 µM
[8]
  TGI: > 100 µM
[9]
  TGI: > 100 µM
